According to patent US20260001893A1, “SMALL MOLECULE MODULATORS OF STAT6” (Gilead Sciences, Inc., priority 2024, published 2026):

tested on: Eotaxin-3 (CCL26) release in human whole blood stimulated with IL-4; experiment: Human whole blood eotaxin-3 assay (IL-4 stimulated eotaxin-3 release); format: cell-based; details: Homo sapiens, 48 h, human whole blood stimulated with recombinant human IL-4, 48 h; given for test compounds with <80% Emax; geometric mean
Experimental: Human Whole Blood Eotaxin-3 Assay
This was a human whole blood assay using recombinant human Interleukin 4 to stimulate the blood and measuring the ability of the test compounds to inhibit eotaxin-3 release. The biological activities of the test compounds have been tested in human whole blood stimulated with IL-4 measuring Eotaxin-3 release. The test compounds were added to 384 well clear flat-bottom plate in a 4-fold serial dilution in triplicates using a liquid handler. Human whole blood stabilized in lithium-heparin tubes was added in a volume of 65 μL per well, resulting in a final DMSO concentration of 0.5%. The plate is incubated for 2 h at 37° C. under 5% CO2/95% air. Subsequently, 5 μL of recombinant human IL-4 (R&D Systems, cat #204-ILB) was added to the wells to a final concentration of […]. The plate was incubated for 48 h at 37° C. under 5% CO2/95% air. The plate was spun down for 10 minutes at 500×g and 20 μL supernatant was harvested and transferred to a 384 well v-bottom plate using a liquid handler and stored at −20° C. until further analysis. 10 μL supernatant was used to measure the level of Eotaxin-3 (CCL26) using Human Eotaxin-3 MSD kit from Mesocsale (Cat #K251UEK-4). The assay was performed according to the manufacture instructions.
The data from the human whole blood eotaxin-3 assay is shown below for Examples 1ab3, 1ab6, 1d23, and 1d4 (where the effect in % is plotted against the test concentration in M on a log-scale).

Row | Compound | Emax
1 | [2H]C([2H])([2H])N(C(=O)c1ccc(C2CCN(Cc3cc4c(-n5ccc(N)c(C)c5=O)ccnc4n3C)CC2)cc1)C([2H])([2H])[2H] [Example 1d22, 4-[1-[[4-(4-Amino-3-methyl-2-oxo-1-pyridyl)-1-methyl-pyrrolo[2,3-b]pyridin-2-yl]methyl]-4-piperidyl]-N,N-bis(trideuteriomethyl)benzamide] | 70 to 80%
2 | [2H]C([2H])([2H])N(C(=O)c1ccc(C2=CCN(Cc3cc4c(-n5ccc6c(c5=O)CCN6)ccnc4n3C)CC2)cc1)C([2H])([2H])[2H] [Example 1af63, N,N-Bis(methyl-d3)-4-(1-((1-methyl-4-(4-oxo-1,2,3,4-tetrahydro-5H-pyrrolo[3,2-c]pyridin-5-yl)-1H-pyrrolo[2,3-b]pyridin-2-yl)methyl)-1,2,3,6-tetrahydropyridin-4-yl)benzamide] | 30 to 40%

same assay, conditions: Homo sapiens, 48 h, human whole blood stimulated with recombinant human IL-4, 48 h; inhibition of eotaxin-3 release; given for test compounds with >80% Emax; geometric mean

Row | Compound | EC50
3 | C[C@@H](c1cc2c(-n3ccc(N)c(F)c3=O)ccnc2n1C)N1CC=C(c2ccc(C(=O)N(C)C)cn2)CC1 (single isomer, unassigned) [Example 1m77] | 524 nM
4 | CN(C)C(=O)c1cc(F)c(C2=CCN(Cc3cc4c(-n5ccc6c(c5=O)CCN6)ccnc4n3C)CC2)cc1C1CC1 (single isomer, unassigned) [Example 1m134, 2-cyclopropyl-5-fluoro-N,N-dimethyl-4-(1-((1-methyl-4-(4-oxo-1,2,3,4-tetrahydro-5H-pyrrolo[3,2-c]pyridin-5-yl)-1H-pyrrolo[2,3-b]pyridin-2-yl)methyl)-1,2,3,6-tetrahydropyridin-4-yl)benzamide] | 2900 nM
5 | [2H]C([2H])([2H])N(C(=O)c1ccc(C2CCN([C@@H](C)c3cc4c(-n5ccc6[nH]nc(C(F)(F)F)c6c5=O)ccnc4n3C)CC2)cc1)C([2H])([2H])[2H] [Example 1m147, (S)—N,N-bis(methyl-d3)-4-(1-(1-(1-methyl-4-(4-oxo-3-(trifluoromethyl)-1,4-dihydro-5H-pyrazolo[4,3-c]pyridin-5-yl)-1H-pyrrolo[2,3-b]pyridin-2-yl)ethyl)piperidin-4-yl)benzamide] | 60.1 nM
6 | CNc1ccn(-c2ccnc3c2cc([C@@H](C)N2CCC(c4c(C)cc(C(=O)N(C)C)cc4F)CC2)n3C)c(=O)c1 [Example 1m108, (R)-3-fluoro-N,N,5-trimethyl-4-(1-(1-(1-methyl-4-(4-(methylamino)-2-oxopyridin-1 (2H)-yl)-1H-pyrrolo[2,3-b]pyridin-2-yl)ethyl)piperidin-4-yl)benzamide] | 317 nM
7 | CNC(=O)c1cc(C)c(C2=CCN(Cc3cc4c(-n5ccc(NC)cc5=O)ccnc4n3C)CC2)c(F)c1 [Example 1m75, 3-fluoro-N,5-dimethyl-4-(1-((1-methyl-4-(4-(methylamino)-2-oxopyridin-1 (2H)-yl)-1H-pyrrolo[2,3-b]pyridin-2-yl)methyl)-1,2,3,6-tetrahydropyridin-4-yl)benzamide] | 17.8 nM
8 | Cc1cc(C(=O)N(C)C)cc(F)c1C1=CCN(Cc2cc3c(-n4ccc(N)cc4=O)ccnc3n2C)CC1 [Example 1ad6, 4-[1-[[4-(4-Amino-2-oxo-1-pyridyl)-1-methyl-pyrrolo[2,3-b]pyridin-2-yl]methyl]-3,6-dihydro-2H-pyridin-4-yl]-3-fluoro-N,N,5-trimethyl-benzamide] | 6.09 nM
9 | Cc1cc(C(=O)N(C)C)cc(F)c1C1=CCN(Cc2cc3c(-n4cc(F)c(N)cc4=O)ccnc3n2C)CC1 [Example 1ad10, 4-(1-((4-(4-amino-5-fluoro-2-oxopyridin-1 (2H)-yl)-1-methyl-1H-pyrrolo[2,3-b]pyridin-2-yl)methyl)-1,2,3,6-tetrahydropyridin-4-yl)-3-fluoro-N,N,5-trimethylbenzamide] | 12.2 nM
10 | CNc1ccn(-c2ccnc3c2cc(C(C)N2CC=C(c4c(C)cc(C(=O)N(C)C)cc4F)C(F)(F)C2)n3C)c(=O)c1 (stereo not shown) [Example 1m139, 4-(3,3-difluoro-1-(1-(1-methyl-4-(4-(methylamino)-2-oxopyridin-1 (2H)-yl)-1H-pyrrolo[2,3-b]pyridin-2-yl)ethyl)-1,2,3,6-tetrahydropyridin-4-yl)-3-fluoro-N,N,5-trimethylbenzamide] | 50.2 nM
11 | CNc1ccn(-c2ccnc3[nH]c(C(C)N4CC=C(c5c(C)cc(C(=O)N(C)C)cc5F)CC4)cc23)c(=O)c1 (stereo not shown) [Example 1m85, 3-fluoro-N,N,5-trimethyl-4-(1-(1-(4-(4-(methylamino)-2-oxopyridin-1 (2H)-yl)-1H-pyrrolo[2,3-b]pyridin-2-yl)ethyl)-1,2,3,6-tetrahydropyridin-4-yl)benzamide] | 128 nM
12 | CNc1ccn(-c2ccnc3c2cc(CN2CC=C(c4c(C)cc(C(=O)N(C)C)cc4F)CC2)n3C)c(=O)n1 [Example 1m88, 3-fluoro-N,N,5-trimethyl-4-(1-((1-methyl-4-(4-(methylamino)-2-oxopyrimidin-1 (2H)-yl)-1H-pyrrolo[2,3-b]pyridin-2-yl)methyl)-1,2,3,6-tetrahydropyridin-4-yl)benzamide] | 4.8 nM
13 | CNc1ccn(-c2ccnc3c2cc(CN2CCC(c4ccc(C(=O)N(C)C)cc4)C[C@H]2C)n3C)c(=O)c1 (stereo in doubt) [Example 1d41, N,N-dimethyl-4-[(2R,4S)-2-methyl-1-[[1-methyl-4-[4-(methylamino)-2-oxo-1-pyridyl]pyrrolo[2,3-b]pyridin-2-yl]methyl]-4-piperidyl]benzamide] | 279 nM
14 | CNc1cc(=O)n(-c2ccnc3c2cc([C@@H](C)N2CCC(c4c(C)cc(C(=O)N(C)C)cc4F)CC2)n3C)cc1F [Example 1m130, (R)-3-fluoro-4-(1-(1-(4-(5-fluoro-4-(methylamino)-2-oxopyridin-1 (2H)-yl)-1-methyl-1H-pyrrolo[2,3-b]pyridin-2-yl)ethyl)piperidin-4-yl)-N,N,5-trimethylbenzamide] | 22.5 nM
15 | C[C@@H](c1cc2c(-n3ccc4c(c3=O)CCN4)ccnc2n1C)N1CCC(c2c(F)cc(C(=O)N(C)C)cc2F)CC1 [Example 1m126, (S)-3,5-difluoro-N,N-dimethyl-4-(1-(1-(1-methyl-4-(4-oxo-1,2,3,4-tetrahydro-5H-pyrrolo[3,2-c]pyridin-5-yl)-1H-pyrrolo[2,3-b]pyridin-2-yl)ethyl)piperidin-4-yl)benzamide] | 12.2 nM
16 | CNc1ccn(-c2ccnc3c2cc(CN2CCC(c4c(F)cc(C(=O)N(C)C)cc4F)CC2)n3C)c(=O)c1F [Example 1m116, 3,5-difluoro-4-(1-((4-(3-fluoro-4-(methylamino)-2-oxopyridin-1 (2H)-yl)-1-methyl-1H-pyrrolo[2,3-b]pyridin-2-yl)methyl)piperidin-4-yl)-N,N-dimethylbenzamide] | 229 nM
17 | [2H]C([2H])([2H])N(C(=O)c1cc(C)c(C2=CCN(Cc3cc4c(-n5ccc(NC)c(C)c5=O)ccnc4n3C)CC2)c(F)c1)C([2H])([2H])[2H] [Example 1m114, 3-fluoro-5-methyl-N,N-bis(methyl-d3)-4-(1-((1-methyl-4-(3-methyl-4-(methylamino)-2-oxopyridin-1 (2H)-yl)-1H-pyrrolo[2,3-b]pyridin-2-yl)methyl)-1,2,3,6-tetrahydropyridin-4-yl)-benzamide] | 185 nM
18 | C[C@@H](c1cc2c(-n3ccc4c(c3=O)CCN4)ccnc2n1C)N1CCC(c2ccc(C(=O)N(C)C)cc2)CC1 [Example 1m82, (S)—N,N-dimethyl-4-(1-(1-(1-methyl-4-(4-oxo-1,2,3,4-tetrahydro-5H-pyrrolo[3,2-c]pyridin-5-yl)-1H-pyrrolo[2,3-b]pyridin-2-yl)ethyl)piperidin-4-yl)benzamide] | 18.4 nM
19 | CN(C)C(=O)c1cc(F)c(C2CCN(Cc3cc4c(-n5cc(F)c6c(c5=O)CCN6)ccnc4n3C)CC2)c(F)c1 [Example 1m133, 3,5-difluoro-4-(1-((4-(7-fluoro-4-oxo-1,2,3,4-tetrahydro-5H-pyrrolo[3,2-c]pyridin-5-yl)-1-methyl-1H-pyrrolo[2,3-b]pyridin-2-yl)methyl)piperidin-4-yl)-N,N-dimethylbenzamide] | 75.2 nM
20 | [2H]C([2H])([2H])N(C(=O)c1cc(C)c(C2=CCN(Cc3cc4c(-n5ccc(NC)nc5=O)ccnc4n3C)CC2)c(F)c1)C([2H])([2H])[2H] [Example 1m96, 3-fluoro-5-methyl-N,N-bis(methyl-d3)-4-(1-((1-methyl-4-(4-(methylamino)-2-oxopyrimidin-1 (2H)-yl)-1H-pyrrolo[2,3-b]pyridin-2-yl)methyl)-1,2,3,6-tetrahydropyridin-4-yl)benzamide] | 3.52 nM
21 | C[C@H](c1cc2c(-n3ccc4c(c3=O)CCN4)ccnc2n1C)N1CCC(c2c(F)cc(C(=O)N(C)C)cc2F)CC1 [Example 1m127, (R)-3,5-difluoro-N,N-dimethyl-4-(1-(1-(1-methyl-4-(4-oxo-1,2,3,4-tetrahydro-5H-pyrrolo[3,2-c]pyridin-5-yl)-1H-pyrrolo[2,3-b]pyridin-2-yl)ethyl)piperidin-4-yl)benzamide] | 49.5 nM

same assay, conditions: human whole blood stimulated with recombinant human IL-4, 48 h; inhibition of eotaxin-3 release; given for test compounds with >80% Emax; geometric mean

Row | Compound | EC50
22 | CNc1ccn(-c2ccnc3c2cc([C@@H](C)N2CC[C@H](c4c(C)cc(C(=O)N(C)C)cc4F)C(F)(F)C2)n3C)c(=O)c1 (single isomer, unassigned) [Example 1m141] | 610 nM
